For test [1], the system named is PIV-1 (recombinant Washington/20993/1964-derived strain encoding GFP). The format is cell-based, parainfluenza virus type 1.
The subject of test [2] is rgRSV224 (RSV A2 reporter virus). Nature of the test: Inhibition of rgRSV224 reporter RSV in HeLa cells (GFP). Conditions: human respiratory syncytial virus, 72 h, read-out: Median EC50.
Test [3] addresses human mitochondrial RNA polymerase (POLRMT) (Homo sapiens, UniProt O00411). Description: Mitochondrial RNA polymerase DdRp activity. It is filed as biochemical. The procedure: to the method described previously 1. A 25 nM solution of RSV MTase-CTD protein or RSV L+P complex was incubated with 0.7 µM or 1.8 µM purified synthetic RNA 5’-Gppp […]
[…] (RSV9) for the MTase-CTD or L+P complex, respectively; 2 µM or 0.17 µM S-adenosyl methionine (SAM) for the MTase-CTD or L–P complex, respectively; and 0.1 µM or 0.8 µM 3H-SAM (Perkin Elmer) for the MTase-CTD or L–P complex, respectively; in 50 mM Tris-HCl pH 8.0. Compounds, previously dissolved in DMSO were added at a final concentration of 50 µM or 200 µM. After 3 h incubation at 30°C, reactions were quenched by a 20-fold dilution in ice cold water. […] They were then soaked with scintillation fluid (Perkin Elmer), and 3H-methyl transfer to the RNA substrates was determined using a Wallac MicroBeta TriLux Liquid Scintillation Counter. […]
Human DNA polymerases alpha (CHIMERx) at 5 U/ml, beta (CHIMERx) at 0.5 U/ml and gamma (Abcam) at 0.1 mg/ml were incubated with the tested inhibitors at specified concentrations, and a reaction mix composed of 62 µg/ml activated calf thymus DNA, dGTP (2 µM), dATP (2 µM), dCTP (2 µM), [ 3H]dTTP (0.05 µCi/µl), 0.1 mg/ml BSA and a buffer composed of Tris-HCl pH 8 (50 mM), MgCl 2 (5 mM), KCl (60 mM), and DTT (4 mM.) in a total volume of 50 µl. […] Radioactivity was measured via liquid scintillation counting (MicroScint-20, 40µl) on a TriLux apparatus. […]

In test [4] the target is RSV L+P complex (Human respiratory syncytial virus A, UniProt P28887). It is filed as biochemical. The settings on record: for MTase activity, RNA+compound+RSV L+P, CPM: three technical replicates.
RSV L+P complex, sequence (P03421 whole entry): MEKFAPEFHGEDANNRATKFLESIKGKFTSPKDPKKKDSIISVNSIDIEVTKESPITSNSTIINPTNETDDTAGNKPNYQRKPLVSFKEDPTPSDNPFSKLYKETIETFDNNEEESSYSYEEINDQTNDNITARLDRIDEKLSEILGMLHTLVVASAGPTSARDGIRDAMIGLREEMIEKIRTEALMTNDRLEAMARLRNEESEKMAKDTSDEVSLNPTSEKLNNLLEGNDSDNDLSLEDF
RSV L+P complex, sequence (P28887 whole entry): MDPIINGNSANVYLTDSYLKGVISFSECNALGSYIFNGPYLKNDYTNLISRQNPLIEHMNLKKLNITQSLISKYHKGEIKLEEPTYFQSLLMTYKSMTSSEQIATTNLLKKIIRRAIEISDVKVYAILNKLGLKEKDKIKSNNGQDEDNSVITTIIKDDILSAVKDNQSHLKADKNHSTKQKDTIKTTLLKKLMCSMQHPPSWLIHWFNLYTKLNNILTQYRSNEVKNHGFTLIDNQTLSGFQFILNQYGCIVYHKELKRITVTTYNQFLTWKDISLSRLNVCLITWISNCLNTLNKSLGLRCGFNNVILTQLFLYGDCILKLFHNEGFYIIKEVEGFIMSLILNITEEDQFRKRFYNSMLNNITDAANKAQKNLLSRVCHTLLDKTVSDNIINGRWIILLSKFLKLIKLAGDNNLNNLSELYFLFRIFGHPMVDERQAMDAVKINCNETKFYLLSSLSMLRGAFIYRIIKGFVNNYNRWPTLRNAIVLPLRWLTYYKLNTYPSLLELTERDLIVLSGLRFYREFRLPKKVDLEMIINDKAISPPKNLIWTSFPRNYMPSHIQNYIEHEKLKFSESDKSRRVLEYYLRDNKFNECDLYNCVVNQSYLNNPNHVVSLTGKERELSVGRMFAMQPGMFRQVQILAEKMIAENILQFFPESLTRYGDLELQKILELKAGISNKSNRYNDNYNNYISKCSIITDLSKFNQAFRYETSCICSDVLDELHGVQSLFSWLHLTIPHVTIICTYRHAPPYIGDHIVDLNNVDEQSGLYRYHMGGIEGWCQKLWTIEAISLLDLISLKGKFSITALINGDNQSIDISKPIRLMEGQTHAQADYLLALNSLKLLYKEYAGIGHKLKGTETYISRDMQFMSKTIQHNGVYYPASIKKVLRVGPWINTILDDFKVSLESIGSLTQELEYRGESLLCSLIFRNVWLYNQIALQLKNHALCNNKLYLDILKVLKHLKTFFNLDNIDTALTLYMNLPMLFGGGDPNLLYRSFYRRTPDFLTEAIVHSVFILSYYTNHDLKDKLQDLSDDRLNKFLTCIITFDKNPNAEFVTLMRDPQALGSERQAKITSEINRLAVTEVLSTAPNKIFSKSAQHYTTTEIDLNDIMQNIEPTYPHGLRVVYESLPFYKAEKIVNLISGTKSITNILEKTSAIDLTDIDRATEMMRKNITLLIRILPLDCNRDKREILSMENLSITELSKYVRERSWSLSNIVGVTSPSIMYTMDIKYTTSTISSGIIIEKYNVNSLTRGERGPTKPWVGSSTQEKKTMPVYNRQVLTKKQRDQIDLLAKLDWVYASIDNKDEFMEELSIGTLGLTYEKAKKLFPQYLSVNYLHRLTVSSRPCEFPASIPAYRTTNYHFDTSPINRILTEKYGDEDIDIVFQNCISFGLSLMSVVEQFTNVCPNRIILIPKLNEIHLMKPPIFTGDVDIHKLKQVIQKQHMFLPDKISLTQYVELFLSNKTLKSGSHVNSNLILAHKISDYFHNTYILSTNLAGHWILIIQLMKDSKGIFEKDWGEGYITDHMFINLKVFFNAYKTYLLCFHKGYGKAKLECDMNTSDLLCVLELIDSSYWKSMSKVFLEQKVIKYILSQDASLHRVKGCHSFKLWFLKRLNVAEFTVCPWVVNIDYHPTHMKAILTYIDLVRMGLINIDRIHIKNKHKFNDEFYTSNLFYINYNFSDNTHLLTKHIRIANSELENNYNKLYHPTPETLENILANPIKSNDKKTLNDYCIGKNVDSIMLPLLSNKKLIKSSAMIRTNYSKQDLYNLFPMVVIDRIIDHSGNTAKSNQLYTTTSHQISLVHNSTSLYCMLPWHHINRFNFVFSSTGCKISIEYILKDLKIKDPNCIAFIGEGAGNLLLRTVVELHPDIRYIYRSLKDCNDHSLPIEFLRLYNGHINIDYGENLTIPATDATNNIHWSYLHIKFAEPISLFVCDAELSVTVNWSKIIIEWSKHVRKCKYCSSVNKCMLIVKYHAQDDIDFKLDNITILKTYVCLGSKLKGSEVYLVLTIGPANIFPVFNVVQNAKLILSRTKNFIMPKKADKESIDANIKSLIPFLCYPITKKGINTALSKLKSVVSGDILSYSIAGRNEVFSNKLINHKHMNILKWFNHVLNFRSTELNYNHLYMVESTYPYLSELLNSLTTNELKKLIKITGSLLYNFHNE

We go through 1 compound from article PMC10590419, “Structural and mechanistic insights into the inhibition of respiratory syncytial virus polymerase by a non-nucleoside inhibitor” (Communications Biology, 2023).

Several values for one entry are separate records, joined by “and”; a condition that tells them apart may be missing. Equal values may be shown once. Read-outs that look alike come from different tables or passages of the source. A value given as a limit tells only on which side of the number the result lay.

Usually EC50 stands for the midpoint of the concentration-response curve. As usually defined, the IC50 is the concentration needed to halve the response being measured.

human mitochondrial RNA polymerase (POLRMT), sequence (O00411 42-1230): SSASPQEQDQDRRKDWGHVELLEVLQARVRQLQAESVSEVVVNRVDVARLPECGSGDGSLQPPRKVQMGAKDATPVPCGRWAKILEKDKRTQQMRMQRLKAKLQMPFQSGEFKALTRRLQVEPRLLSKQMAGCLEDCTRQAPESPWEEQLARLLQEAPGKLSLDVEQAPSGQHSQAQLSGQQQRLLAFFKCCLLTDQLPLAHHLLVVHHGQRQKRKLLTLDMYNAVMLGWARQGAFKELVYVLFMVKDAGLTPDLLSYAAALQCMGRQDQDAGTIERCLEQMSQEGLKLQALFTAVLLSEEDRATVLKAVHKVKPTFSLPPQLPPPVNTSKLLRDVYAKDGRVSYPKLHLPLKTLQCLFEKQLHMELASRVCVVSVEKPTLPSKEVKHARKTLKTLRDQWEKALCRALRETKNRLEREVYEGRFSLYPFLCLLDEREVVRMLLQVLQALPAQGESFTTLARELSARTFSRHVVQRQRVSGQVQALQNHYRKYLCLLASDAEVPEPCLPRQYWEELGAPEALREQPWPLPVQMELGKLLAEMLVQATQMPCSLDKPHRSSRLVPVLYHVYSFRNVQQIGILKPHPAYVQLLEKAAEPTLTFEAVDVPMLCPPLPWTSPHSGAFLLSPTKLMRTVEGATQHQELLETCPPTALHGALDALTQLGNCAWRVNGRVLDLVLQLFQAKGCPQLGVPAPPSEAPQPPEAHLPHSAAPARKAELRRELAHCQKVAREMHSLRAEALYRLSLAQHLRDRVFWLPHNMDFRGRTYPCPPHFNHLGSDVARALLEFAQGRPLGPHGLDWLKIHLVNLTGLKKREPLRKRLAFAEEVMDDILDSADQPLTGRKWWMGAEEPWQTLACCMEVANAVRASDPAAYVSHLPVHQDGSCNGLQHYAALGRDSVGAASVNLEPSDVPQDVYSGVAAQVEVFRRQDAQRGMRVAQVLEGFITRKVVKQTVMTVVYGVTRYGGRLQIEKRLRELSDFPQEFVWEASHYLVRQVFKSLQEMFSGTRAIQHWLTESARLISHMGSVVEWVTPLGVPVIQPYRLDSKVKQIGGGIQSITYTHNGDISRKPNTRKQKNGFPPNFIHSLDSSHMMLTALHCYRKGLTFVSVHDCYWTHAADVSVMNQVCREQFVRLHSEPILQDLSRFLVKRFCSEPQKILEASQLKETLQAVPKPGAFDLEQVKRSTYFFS

Consider `COc1cc(C(=O)NC[C@](O)(c2cc(C(C)(C)O)c(F)c(-c3ccc(F)cc3)n2)C(F)(F)F)cc2cc(C)nnc12` [JNJ-8003], for which the “inhibition (in words)” value in test [1] is “negligible inhibition”. Besides, in test [2], the EC50 amounted to 0.78 nM. Further, the concentration for half-maximal inhibition (IC50) in test [3] was > 100000 nM. Also, the “MTase activity, RNA+compound+RSV L+P, CPM” value in test [4] (50 uM) is 23422 CPM and 23466 CPM and 23927 CPM; in test [4] (200 uM) it was 14871 CPM and 15721 CPM and 15503 CPM. Also, the “impact on MTase activity (in words)” value in test [4] (full-length RSV L+P) is “no impact”.
